Measured values from the supplement of paper PMC12463676, “Small-molecule dissolution of stress granules by redox modulation benefits ALS models” (Nature Chemical Biology, 2025).

Key:
lipoamide = compound: NC(=O)CCCCC1CCSS1 [lipoamide]; test: thermal stability z-score vs DMSO; higher = more thermally stabilized by treatment; conditions: HeLa, lipoamide concentration 100 µM
Protocol: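 Cellular thermal proteome profiling in HeLa cells. Cells were treated with 100 µM lipoamide for 1 h, with or without 1 mM arsenate for a further 1 h, then heated to ten temperatures (37-66.3 °C), and soluble protein was quantified by TMT mass spectrometry relative to 0.1% DMSO controls. The thermal stability score (sum of log2 fold changes minus the abundance score) was transformed to a z-score; mean of n = 3 experiments.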

potassium arsenate = compound: O=[As]([O-])(O)O.[K+] [potassium arsenate]; test: as above; conditions: HeLa; arsenate concentration 1 mM
Protocol: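 Cellular thermal proteome profiling in HeLa cells treated with 1 mM arsenate for 1 h (DMSO pretreatment), heated to ten temperatures (37-66.3 °C). Soluble protein was quantified by TMT mass spectrometry relative to DMSO controls; the thermal stability score was transformed to a z-score; mean of n = 3 experiments.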

[1] = arsenate co-treatment: 1 mM arsenate 1 h
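Note: each temperature applied for 3 min, abundance score taken as mean log2 fold change at the two lowest temperatures, z-score obtained by mean subtraction and division by SD.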

Sequence of UniProt Q49B96 (Q49B96 whole entry): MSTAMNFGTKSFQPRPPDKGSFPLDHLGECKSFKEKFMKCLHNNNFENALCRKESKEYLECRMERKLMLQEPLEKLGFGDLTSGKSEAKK
Sequence of UniProt O00629 (O00629 whole entry): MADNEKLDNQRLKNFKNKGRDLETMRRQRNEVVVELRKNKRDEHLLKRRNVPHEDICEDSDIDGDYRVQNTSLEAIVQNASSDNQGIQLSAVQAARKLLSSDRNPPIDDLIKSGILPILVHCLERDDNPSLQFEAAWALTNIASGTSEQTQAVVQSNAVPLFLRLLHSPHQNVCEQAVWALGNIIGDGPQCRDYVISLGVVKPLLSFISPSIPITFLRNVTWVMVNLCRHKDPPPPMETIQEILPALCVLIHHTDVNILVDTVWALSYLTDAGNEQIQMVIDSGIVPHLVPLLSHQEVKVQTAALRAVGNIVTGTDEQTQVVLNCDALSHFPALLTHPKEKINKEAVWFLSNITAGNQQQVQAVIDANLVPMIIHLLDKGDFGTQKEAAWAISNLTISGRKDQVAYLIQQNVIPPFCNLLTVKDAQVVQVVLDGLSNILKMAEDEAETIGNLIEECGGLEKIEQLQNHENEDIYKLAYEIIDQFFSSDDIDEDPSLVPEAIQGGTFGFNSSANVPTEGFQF
Sequence of UniProt O60884 (O60884 whole entry): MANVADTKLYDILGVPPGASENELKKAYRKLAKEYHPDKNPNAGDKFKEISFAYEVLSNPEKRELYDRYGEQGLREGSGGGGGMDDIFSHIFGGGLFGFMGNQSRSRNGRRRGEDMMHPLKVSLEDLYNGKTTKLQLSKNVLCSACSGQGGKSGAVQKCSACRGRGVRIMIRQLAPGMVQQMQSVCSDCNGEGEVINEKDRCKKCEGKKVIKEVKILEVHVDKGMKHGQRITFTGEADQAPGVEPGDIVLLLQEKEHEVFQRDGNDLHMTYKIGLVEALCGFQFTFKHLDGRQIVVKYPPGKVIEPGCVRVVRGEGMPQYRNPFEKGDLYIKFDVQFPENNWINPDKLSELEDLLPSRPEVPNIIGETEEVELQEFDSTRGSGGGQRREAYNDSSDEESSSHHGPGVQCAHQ
Sequence of UniProt Q96FV9 (Q96FV9 whole entry): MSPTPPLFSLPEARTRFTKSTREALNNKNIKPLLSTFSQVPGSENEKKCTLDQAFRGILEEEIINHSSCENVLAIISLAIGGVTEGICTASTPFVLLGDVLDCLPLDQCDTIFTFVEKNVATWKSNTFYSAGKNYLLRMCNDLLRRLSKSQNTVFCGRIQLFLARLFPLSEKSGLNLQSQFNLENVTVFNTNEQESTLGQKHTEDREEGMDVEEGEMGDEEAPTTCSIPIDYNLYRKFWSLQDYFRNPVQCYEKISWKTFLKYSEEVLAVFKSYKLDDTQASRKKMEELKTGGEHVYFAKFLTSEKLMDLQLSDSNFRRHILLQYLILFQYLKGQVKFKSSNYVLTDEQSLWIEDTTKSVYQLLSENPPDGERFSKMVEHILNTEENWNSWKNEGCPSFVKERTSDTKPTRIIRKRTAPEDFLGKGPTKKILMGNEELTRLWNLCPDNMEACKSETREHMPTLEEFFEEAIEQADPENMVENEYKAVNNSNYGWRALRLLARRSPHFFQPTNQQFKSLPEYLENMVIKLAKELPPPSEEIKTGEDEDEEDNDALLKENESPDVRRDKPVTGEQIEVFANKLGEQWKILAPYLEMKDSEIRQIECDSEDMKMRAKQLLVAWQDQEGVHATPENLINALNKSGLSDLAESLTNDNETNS
Sequence of UniProt Q99873 (Q99873 whole entry, looked up): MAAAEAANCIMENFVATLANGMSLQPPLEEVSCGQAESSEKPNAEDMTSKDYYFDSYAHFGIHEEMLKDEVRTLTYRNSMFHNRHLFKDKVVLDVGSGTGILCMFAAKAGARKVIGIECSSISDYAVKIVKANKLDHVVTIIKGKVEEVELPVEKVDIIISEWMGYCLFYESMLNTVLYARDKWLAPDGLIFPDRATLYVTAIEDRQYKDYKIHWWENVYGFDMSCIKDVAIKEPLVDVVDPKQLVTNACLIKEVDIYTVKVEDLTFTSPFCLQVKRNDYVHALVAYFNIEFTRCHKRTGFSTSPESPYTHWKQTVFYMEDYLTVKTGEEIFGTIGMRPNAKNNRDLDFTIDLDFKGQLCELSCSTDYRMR
Sequence of UniProt Q9H3F6 (Q9H3F6 whole entry): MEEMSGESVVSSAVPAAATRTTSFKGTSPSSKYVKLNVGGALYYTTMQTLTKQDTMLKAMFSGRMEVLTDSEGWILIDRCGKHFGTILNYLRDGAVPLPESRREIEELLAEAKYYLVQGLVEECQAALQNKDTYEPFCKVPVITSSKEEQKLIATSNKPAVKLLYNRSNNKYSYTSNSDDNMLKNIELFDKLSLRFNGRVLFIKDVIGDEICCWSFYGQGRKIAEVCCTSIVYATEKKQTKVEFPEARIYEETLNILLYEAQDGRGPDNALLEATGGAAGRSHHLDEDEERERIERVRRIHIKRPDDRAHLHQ
Sequence of UniProt Q14151 (Q14151 whole entry): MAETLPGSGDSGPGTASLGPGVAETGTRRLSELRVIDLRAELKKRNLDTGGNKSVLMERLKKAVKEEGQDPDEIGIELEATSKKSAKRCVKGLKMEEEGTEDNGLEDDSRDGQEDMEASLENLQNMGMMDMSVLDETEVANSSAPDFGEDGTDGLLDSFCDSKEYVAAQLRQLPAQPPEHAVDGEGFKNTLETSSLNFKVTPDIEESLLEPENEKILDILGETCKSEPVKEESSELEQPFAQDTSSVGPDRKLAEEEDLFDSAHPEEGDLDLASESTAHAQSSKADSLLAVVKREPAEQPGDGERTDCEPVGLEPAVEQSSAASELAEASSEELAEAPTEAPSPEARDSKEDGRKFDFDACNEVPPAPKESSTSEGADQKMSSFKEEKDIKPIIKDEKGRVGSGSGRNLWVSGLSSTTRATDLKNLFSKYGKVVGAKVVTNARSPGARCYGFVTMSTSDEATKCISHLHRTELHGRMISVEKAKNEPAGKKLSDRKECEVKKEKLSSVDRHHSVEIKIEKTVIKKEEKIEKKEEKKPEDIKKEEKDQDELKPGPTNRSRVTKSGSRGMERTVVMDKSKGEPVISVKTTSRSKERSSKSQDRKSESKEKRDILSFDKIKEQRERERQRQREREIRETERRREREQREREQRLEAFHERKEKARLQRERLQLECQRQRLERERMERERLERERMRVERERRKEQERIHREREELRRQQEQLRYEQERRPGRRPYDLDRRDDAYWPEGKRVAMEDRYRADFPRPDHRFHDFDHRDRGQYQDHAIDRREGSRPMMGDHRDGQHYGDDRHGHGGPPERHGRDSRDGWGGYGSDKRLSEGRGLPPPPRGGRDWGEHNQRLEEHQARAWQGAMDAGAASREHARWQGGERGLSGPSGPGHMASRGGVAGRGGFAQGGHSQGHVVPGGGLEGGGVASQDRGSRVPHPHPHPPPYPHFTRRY
Sequence of UniProt O00180 (O00180 whole entry): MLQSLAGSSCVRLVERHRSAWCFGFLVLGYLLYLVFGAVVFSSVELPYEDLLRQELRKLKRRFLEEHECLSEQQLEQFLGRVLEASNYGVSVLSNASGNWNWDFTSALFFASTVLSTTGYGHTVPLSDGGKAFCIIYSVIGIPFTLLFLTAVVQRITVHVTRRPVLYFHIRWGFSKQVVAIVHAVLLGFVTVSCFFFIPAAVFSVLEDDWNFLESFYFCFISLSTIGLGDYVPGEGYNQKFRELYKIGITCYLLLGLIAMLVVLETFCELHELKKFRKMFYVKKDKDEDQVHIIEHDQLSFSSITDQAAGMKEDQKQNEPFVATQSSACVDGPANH
Sequence of UniProt O14787 (O14787 whole entry): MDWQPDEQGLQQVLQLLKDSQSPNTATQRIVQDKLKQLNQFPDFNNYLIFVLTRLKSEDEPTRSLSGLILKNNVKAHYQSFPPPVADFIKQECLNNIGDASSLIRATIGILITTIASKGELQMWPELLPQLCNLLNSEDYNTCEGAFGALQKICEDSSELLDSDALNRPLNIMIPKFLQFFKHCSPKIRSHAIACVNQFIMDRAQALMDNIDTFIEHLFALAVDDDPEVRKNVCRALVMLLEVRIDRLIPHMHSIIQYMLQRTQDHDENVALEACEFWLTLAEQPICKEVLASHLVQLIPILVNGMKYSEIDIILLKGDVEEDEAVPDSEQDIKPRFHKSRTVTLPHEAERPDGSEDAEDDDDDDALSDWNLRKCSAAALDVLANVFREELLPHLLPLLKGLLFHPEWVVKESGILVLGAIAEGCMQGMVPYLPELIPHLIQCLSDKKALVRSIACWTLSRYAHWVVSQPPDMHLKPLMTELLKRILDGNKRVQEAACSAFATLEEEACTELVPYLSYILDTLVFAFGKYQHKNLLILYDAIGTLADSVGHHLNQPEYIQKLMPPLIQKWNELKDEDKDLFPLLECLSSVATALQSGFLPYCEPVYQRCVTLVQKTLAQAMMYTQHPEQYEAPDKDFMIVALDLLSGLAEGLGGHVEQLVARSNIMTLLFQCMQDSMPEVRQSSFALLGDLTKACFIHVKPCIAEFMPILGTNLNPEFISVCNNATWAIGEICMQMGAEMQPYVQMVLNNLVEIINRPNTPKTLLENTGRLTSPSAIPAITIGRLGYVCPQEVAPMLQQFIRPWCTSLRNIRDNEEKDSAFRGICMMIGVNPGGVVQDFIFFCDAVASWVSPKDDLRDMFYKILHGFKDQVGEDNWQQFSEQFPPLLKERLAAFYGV
Sequence of UniProt Q9UHR6 (Q9UHR6 whole entry): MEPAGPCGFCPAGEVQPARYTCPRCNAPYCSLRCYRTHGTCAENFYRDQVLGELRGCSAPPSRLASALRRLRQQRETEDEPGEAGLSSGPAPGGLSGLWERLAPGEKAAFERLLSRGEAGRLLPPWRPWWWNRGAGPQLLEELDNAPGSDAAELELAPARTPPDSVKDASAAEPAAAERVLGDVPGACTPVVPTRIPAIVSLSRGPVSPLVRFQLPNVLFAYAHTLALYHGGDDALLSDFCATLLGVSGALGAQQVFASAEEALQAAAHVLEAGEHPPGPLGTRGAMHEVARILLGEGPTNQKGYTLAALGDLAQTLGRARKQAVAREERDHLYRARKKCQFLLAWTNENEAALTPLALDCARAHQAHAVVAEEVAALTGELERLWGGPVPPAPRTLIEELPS

Target | thermal stability z-score (lipoamide; [1]) | thermal stability z-score (lipoamide; arsenate co-treatment: none) | thermal stability z-score (potassium arsenate)
NADSYN1 (UniProt Q6IA69) | 0.995 | 0.788 | -0.0415
KCNK1 (UniProt O00180) | -1.31 | 0.686 | -1.18
PAGR1 (UniProt Q9BTK6) | 0.263 | -0.446 | -0.194
TBC1D13 (UniProt Q9NVG8) | 0.33 | 0.109 | -0.494
DHX15 (UniProt O43143) | -0.319 | -0.389 | 0.00808
ZNHIT2 (UniProt Q9UHR6) | -0.047 | 0.147 | -0.28
RPL12 (UniProt P30050) | 0.344 | 0.0511 | -0.459
USP39 (UniProt Q53GS9) | -0.384 | -0.174 | -0.489
TCEA1 (UniProt P23193) | 0.138 | 0.297 | -0.117
SYMPK (UniProt Q92797) | 0.324 | 0.338 | -0.75
DNAJA2 (UniProt O60884) | -0.922 | -1.05 | -0.26
PAN2 (UniProt Q504Q3) | 0.0953 | -0.21 | -0.143
QARS | -0.515 | -0.706 | -0.289
EEA1 (UniProt Q15075) | 0.149 | 0.231 | -0.325
ACAT1 (UniProt P24752) | 0.399 | 1.07 | 0.878
MBD4 (UniProt O95243) | -0.0777 | 0.0091 | -0.571
PARG (UniProt Q86W56) | -0.123 | 0.257 | 0.0362
ATF1 (UniProt P18846) | 1.13 | 1.84 | -0.0555
METTL7A (UniProt Q9H8H3) | 2.84 | 2.54 | 0.632
KDELC2 (UniProt Q7Z4H8) | -4.05 | -2.72 | 0.334
KPNA4 (UniProt O00629) | 0.791 | 0.48 | 0.399
CCAR1 (UniProt Q8IX12) | 0.657 | 0.27 | -0.106
PIGO (UniProt Q8TEQ8) | -1.23 | -1.1 | -0.779
DUS1L (UniProt Q6P1R4) | 0.178 | -0.547 | 0.0119

Target | thermal stability z-score (lipoamide; [1]) | thermal stability z-score (lipoamide; arsenate co-treatment: none) | thermal stability z-score (potassium arsenate)
RNF20 (UniProt Q5VTR2) | -0.218 | -0.026 | -0.112
PRPF38A (UniProt Q8NAV1) | 0.22 | 0.213 | 0.503
NEDD1 (UniProt Q8NHV4) | 0.124 | 0.153 | 0.216
RTN3 (UniProt O95197) | 0.112 | 0.0244 | 0.525
HNRNPD (UniProt Q14103) | 0.285 | -0.223 | -0.562
ECHDC1 (UniProt Q9NTX5) | 0.928 | 0.478 | 0.479
ENO3 (UniProt P13929) | 0.308 | -0.4 | -0.432
ERAP1 (UniProt Q9NZ08) | -2.65 | -2.68 | 0.97
PSMD4 (UniProt P55036) | 0.377 | 0.242 | 0.383
KDM3B (UniProt Q7LBC6) | 0.258 | -0.0129 | 0.0976
CD109 (UniProt Q6YHK3) | -0.877 | -1.01 | 1.06
MRPL27 (UniProt Q9P0M9) | -0.0242 | 0.00566 | -0.0764
LRCH1 (UniProt Q9Y2L9) | 0.0183 | 0.0529 | 0.494
IGBP1 (UniProt P78318) | 0.172 | 0.441 | -0.613
TTC37 (UniProt Q6PGP7) | -0.601 | -0.234 | -0.0411
PDIA6 (UniProt Q15084) | -2.44 | -1.84 | 0.475
COMT (UniProt P21964) | 0.121 | 0.102 | -0.525
RPS4X (UniProt P62701) | 0.35 | 0.0222 | -0.997
SAFB2 (UniProt Q14151) | 1.41 | 0.112 | -0.545
SLC25A4 (UniProt P12235) | -0.0513 | 0.0728 | 0.373
SH3GLB1 (UniProt Q9Y371) | -0.179 | -0.0481 | 0.658
PRMT1 (UniProt Q99873) | 0.147 | 0.262 | -0.12
RBKS (UniProt Q9H477) | -0.0153 | -0.521 | 0.335
NMRAL1 (UniProt Q9HBL8) | 1.43 | 1.45 | 1.37

Target | thermal stability z-score (lipoamide; [1]) | thermal stability z-score (lipoamide; arsenate co-treatment: none) | thermal stability z-score (potassium arsenate)
SMARCC2 (UniProt Q8TAQ2) | 1.35 | 1.85 | 0.305
HSF1 (UniProt Q00613) | -0.332 | -0.199 | -0.185
MRPS33 (UniProt Q9Y291) | 0.0616 | 0.0342 | 0.00906
JUP (UniProt P14923) | 2.23 | 2.78 | 1.07
KCTD10 (UniProt Q9H3F6) | 0.997 | 0.63 | 1.06
PDRG1 (UniProt Q9NUG6) | 0.0914 | -0.238 | 0.203
TNPO2 (UniProt O14787) | -1.26 | -0.726 | 0.809
THOC1 (UniProt Q96FV9) | 0.298 | -0.0559 | -0.258
HSPA5 (UniProt P11021) | -2.56 | -1.9 | 0.434
SLC9A1 (UniProt P19634) | -0.174 | -0.629 | 0.274
BAX (UniProt Q07812) | 0.343 | 1.42 | 1.46
NUDT5 (UniProt Q9UKK9) | 0.871 | 0.881 | 0.191
SLC25A22 (UniProt Q9H936) | -0.147 | 0.0868 | -0.472
DTWD2 (UniProt Q8NBA8) | -0.283 | 0.0338 | 0.0974
RBM15 (UniProt Q96T37) | -0.454 | -0.0697 | -0.321
PBLD (UniProt P30039) | -0.0252 | -0.218 | -0.578
GTPBP8 (UniProt Q8N3Z3) | 0.145 | 0.0392 | -0.0237
COX19 (UniProt Q49B96) | 0.659 | 0.945 | 0.412
DUS3L (UniProt Q96G46) | -0.321 | -0.548 | -0.458
U2AF2 (UniProt P26368) | -0.241 | -0.169 | -1.31
ZNHIT6 (UniProt Q9NWK9) | 1.08 | 0.924 | 0.0739
NFAT5 (UniProt O94916) | 0.48 | 0.0594 | 1.37
YOD1 (UniProt Q5VVQ6) | -0.00898 | -0.121 | 0.0186
